Structures are written as SMILES.

The target of one assay is T1, adenosine A1 receptor (Rattus norvegicus, UniProt P25099).
T1 construct: adenosine A1 receptor in rat brain cortex; from tissue; host or cells: rat brain cortex
T1 sequence (P25099 1-326): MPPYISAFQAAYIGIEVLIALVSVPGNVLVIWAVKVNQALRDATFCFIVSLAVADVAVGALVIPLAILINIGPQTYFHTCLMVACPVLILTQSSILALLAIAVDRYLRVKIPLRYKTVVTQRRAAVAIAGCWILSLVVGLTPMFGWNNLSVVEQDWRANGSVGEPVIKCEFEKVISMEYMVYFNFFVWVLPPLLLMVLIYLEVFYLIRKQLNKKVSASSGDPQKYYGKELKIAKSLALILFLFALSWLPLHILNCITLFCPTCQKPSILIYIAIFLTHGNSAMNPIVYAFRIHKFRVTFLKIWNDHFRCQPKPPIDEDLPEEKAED
Kind of assay: Radioligand binding assay, displacement of [3H]DPCPX, in the absence and presence of 1 mM GTP. To be noted: for Ki: rat brain cortex, [3H]DPCPX; for GTP shift: ratio of the apparent Ki values in the presence and absence of 1 mM GTP. Here is the method: The compounds were assayed for A1 affinity (Ki values expressed in µM) using the tritiated antagonist [^3H]-1,3-dipropyl-8-cyclopentylxanthine (DPCPX). Displacement experiments were performed in the absence and presence of 1 mM GTP, allowing the determination of the GTP shift (i.e., the ratio of the apparant Ki values in the presence and absence of GTP, respectively). This shift is an in vitro parameter often indicative for intrinsic activity.
(In a radioligand displacement assay an active substance lowers the binding of a labelled ligand.)

For the next assay, the system named is A2a receptors. The assay is described as follows: Selectivity for A1 vs A2a receptors (method not described). The class given is binding.
Another assay addresses T2, A1 receptor (Homo sapiens, UniProt P30542).
T2 sequence (P30542 1-326): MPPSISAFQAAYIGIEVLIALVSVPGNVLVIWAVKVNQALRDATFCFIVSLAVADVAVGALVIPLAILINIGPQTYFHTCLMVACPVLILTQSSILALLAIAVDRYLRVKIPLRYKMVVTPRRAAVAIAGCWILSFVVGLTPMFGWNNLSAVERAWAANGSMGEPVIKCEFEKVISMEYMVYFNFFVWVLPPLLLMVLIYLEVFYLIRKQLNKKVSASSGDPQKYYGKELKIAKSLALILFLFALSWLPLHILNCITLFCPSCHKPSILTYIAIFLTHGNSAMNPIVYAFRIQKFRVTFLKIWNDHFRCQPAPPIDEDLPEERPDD
To be noted: cited from earlier work.

Chain of A2a receptors (P29274 whole entry): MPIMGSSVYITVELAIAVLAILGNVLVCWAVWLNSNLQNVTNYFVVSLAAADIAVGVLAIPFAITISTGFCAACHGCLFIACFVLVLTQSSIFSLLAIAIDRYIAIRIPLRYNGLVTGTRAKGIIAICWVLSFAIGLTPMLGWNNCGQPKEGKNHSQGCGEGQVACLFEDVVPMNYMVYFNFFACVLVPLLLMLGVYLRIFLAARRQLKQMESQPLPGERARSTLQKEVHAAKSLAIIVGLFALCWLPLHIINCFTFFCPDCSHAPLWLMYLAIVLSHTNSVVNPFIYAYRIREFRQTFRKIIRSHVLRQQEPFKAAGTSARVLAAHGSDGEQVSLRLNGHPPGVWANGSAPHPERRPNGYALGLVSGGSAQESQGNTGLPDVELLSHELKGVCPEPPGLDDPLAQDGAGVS

As a reminder, the Ki is a dissociation constant, usually derived from enzyme kinetics or from competition with a known ligand. Regarding `Cc1ccc(C(=O)N[C@@H]2[C@@H](O)[C@H](n3cnc4c(NC5CCCC5)ncnc43)O[C@@H]2CO)cc1C` [c, 9-[3-Deoxy-3-(3,4-dimethylbenzamido)-β-D-xylofuranosyl]-N^6-cyclopentyladenine], the Ki at adenosine A1 receptor (absence of GTP) amounted to 23.6 ± 2.5 nM; at adenosine A1 receptor (presence of 1 mM GTP), 17.4 ± 4.2 nM. Also, the GTP shift at adenosine A1 receptor is given as 0.73±0.11. For the same molecule, the “selectivity for A1 vs A2a receptors” value in the assay on A2a receptors is on record as 160 times.
As for `Cc1ccc(C(=O)N[C@@H]2[C@@H](O)[C@H](n3cnc4c(NC5CCCC5)ncnc43)O[C@@H]2CO)cc1` [b, 9-[3-Deoxy-3-(4-methylbenzamido)-β-D-xylofuranosyl]-N^6-cyclopentyladenine], the values for the Ki at adenosine A1 receptor (absence of GTP) and at adenosine A1 receptor (presence of 1 mM GTP) were 83 ± 15 nM and 68 ± 10 nM, respectively. For the same molecule, the GTP shift at adenosine A1 receptor was determined as 0.84±0.19.
The like results for `O=C(N[C@@H]1[C@@H](O)[C@H](n2cnc3c(NC4CCCC4)ncnc32)O[C@@H]1CO)c1ccccc1` [a, 9-(3-Benzamido-3-deoxy-β-D-xylofuranosyl)-N^6-cyclopentyladenine] were, in that order, 400 ± 130 nM, 310 ± 50 nM and 0.80±0.13.
Consider `[N-]=[N+]=NC1C(CO)OC(n2cnc3c(NC4CCCC4)ncnc32)C1O` (stereo not shown) [compound 3], for which the “affinity for A1 receptors” value at adenosine A1 receptor (stated in words) is recorded as “relatively poor affinity”.
As for `Nc1ncnc2c1ncn2[C@@H]1O[C@H](CO)C[C@H]1O` [3'-deoxyadenosine, reference compound], the Ki was 7120 ± 3620 nM at adenosine A1 receptor (absence of GTP) and 15200 ± 2000 nM at adenosine A1 receptor (presence of 1 mM GTP). In addition, the GTP shift on adenosine A1 receptor stood at 2.1±1.4.
Regarding `OCC1CC(O)C(n2cnc3c(NC4CCCC4)ncnc32)O1` (stereo not shown) [3'-deoxy-CPA, reference compound], the “affinity for the A1 receptor” value at A1 receptor (stated in words, background) was “submicromolar affinity”. Besides, the Ki at adenosine A1 receptor (absence of GTP) was found to be 110 ± 30 nM; at adenosine A1 receptor (presence of 1 mM GTP), 470 ± 40 nM. The GTP shift on adenosine A1 receptor was found to be 4.3±1.2.
In the case of `O=C(N[C@@H]1[C@@H](O)[C@H](n2cnc3c(NC4CCCC4)ncnc32)O[C@@H]1CO)c1ccc(Cl)c(Cl)c1` [d, 9-[3-Deoxy-3-(3,4-dichlorobenzamido)-β-D-xylofuranosyl]-N^6-cyclopentyladenine], the values for the Ki at adenosine A1 receptor (absence of GTP) and at adenosine A1 receptor (presence of 1 mM GTP) were 32.5 ± 0.31 nM and 23.7 ± 1.4 nM, respectively. In addition, at adenosine A1 receptor, the GTP shift is recorded as 0.73±0.09.
On to `C[C@H](Cc1ccccc1)Nc1ncnc2c1ncn2[C@@H]1O[C@H](CO)C[C@H]1O` [3'-deoxy-R-PIA], for which the drop in affinity at A1 receptor (A1 receptor affinity, removal of the 3'-hydroxyl group of R-PIA) is listed as 30 fold.
